Data reported in the supplement of paper PMC10307832.

Tests used:
Experiment in all cases: relative viability (nuclei count vs DMSO), 5 days (fraction); higher = more cells survive
[1] = test system: A549
Outline: (§1)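 For relative viability, nuclei counts in treated wells were divided by those in vehicle wells. Lung cancer cell lines had been pin-tool dosed in 1536-well plates the day after seeding and cultured for 5 days, then fixed and stained in one step (final 0.05% Triton X-100, 1% formaldehyde, 1 ug/ml Hoechst) and imaged at 4×. Doses were one drug alone or a fixed anchor-drug dose plus five library-drug doses (not always all listed) in √10 steps, and values are duplicate-plate medians.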

[2] = test system: Calu-6
Outline: as §1

[3] = test system: EBC-1
Outline: as §1

[4] = test system: IA-LM
Outline: as §1

[5] = test system: NCI-H1299
Outline: as §1

[6] = test system: NCI-H1703
Outline: as §1

[7] = test system: NCI-H596
Outline: as §1

Structure (SMILES) | relative viability ([1]; first compound 0.04 µM) | relative viability ([1]; first compound 0.1265 µM) | relative viability ([1]; first compound 0.4 µM) | relative viability ([1]; first compound 4 µM) | relative viability ([2]; first compound 0.04 µM) | relative viability ([2]; first compound 0.1265 µM) | relative viability ([2]; first compound 0.4 µM) | relative viability ([2]; first compound 4 µM) | relative viability ([3]; first compound 0.04 µM) | relative viability ([3]; first compound 0.1265 µM) | relative viability ([3]; first compound 0.4 µM) | relative viability ([3]; first compound 4 µM) | relative viability ([4]; first compound 0.04 µM) | relative viability ([4]; first compound 0.1265 µM) | relative viability ([4]; first compound 0.4 µM) | relative viability ([4]; first compound 4 µM) | relative viability ([5]; first compound 0.04 µM) | relative viability ([5]; first compound 0.1265 µM) | relative viability ([5]; first compound 0.4 µM) | relative viability ([5]; first compound 4 µM) | further results
C[C@@H]1CN(CC(=O)Nc2ccc3c(c2)Cc2cccc(-c4cc(=O)cc(N5CCOCC5)o4)c2S3)C[C@H](C)O1 + Cc1nc(NC(=O)N2CCC[C@H]2C(N)=O)sc1-c1ccnc(C(C)(C)C(F)(F)F)c1 [Alpelisib] (partner 2 µM) | 0.776 | 0.753 | 0.826 | 0.457 | 1.03 | 1.03 | 0.97 | 0.79 | 0.905 | 0.826 | 0.386 | 0.506 | 0.884 | 0.801 | 0.895 | 0.387 | 1.02 | 1.05 | 1.05 | 1.02 | relative viability ([6]; first compound 0.04 µM): 0.426; relative viability ([6]; first compound 0.1265 µM): 0.33; relative viability ([6]; first compound 0.4 µM): 0.299; relative viability ([6]; first compound 4 µM): 0.277; relative viability ([7]; first compound 0.04 µM): 0.513; relative viability ([7]; first compound 0.1265 µM): 0.451; relative viability ([7]; first compound 0.4 µM): 0.384; relative viability ([7]; first compound 4 µM): 0.428
C[C@@H]1CN(CC(=O)Nc2ccc3c(c2)Cc2cccc(-c4cc(=O)cc(N5CCOCC5)o4)c2S3)C[C@H](C)O1 + CS(=O)(=O)CCNCc1ccc(-c2ccc3ncnc(Nc4ccc(OCc5cccc(F)c5)c(Cl)c4)c3c2)o1 [Lapatinib] (partner 2 µM) | 0.986 | 0.917 | 1.14 | 0.831 | 1.09 | 1.06 | 0.96 | 0.775 | 0.255 | 0.219 | 0.214 | 0.208 | 0.951 | 0.777 | 0.956 | 0.339 | 1.01 | 0.956 | 1.01 | 0.816 | relative viability ([6]; first compound 0.04 µM): 1.24; relative viability ([6]; first compound 0.1265 µM): 1.1; relative viability ([6]; first compound 0.4 µM): 0.955; relative viability ([6]; first compound 4 µM): 0.688; relative viability ([7]; first compound 0.04 µM): 1.07; relative viability ([7]; first compound 0.1265 µM): 1.24; relative viability ([7]; first compound 0.4 µM): 1.06; relative viability ([7]; first compound 4 µM): 1.03
CC(C)Oc1cc(Nc2nc(N[C@@H](C)c3ccc(F)cn3)ncc2Cl)n[nH]1 [AZ23] + CC1(C)CCC(c2ccc(Cl)cc2)=C(CN2CCN(c3ccc(C(=O)NS(=O)(=O)c4ccc(N[C@H](CCN5CCOCC5)CSc5ccccc5)c(S(=O)(=O)C(F)(F)F)c4)cc3)CC2)C1 [Navitoclax] (partner 0.5 µM) | – | – | – | – | – | – | – | – | – | – | – | – | – | – | – | – | – | – | – | – | relative viability ([1]; first compound 0.01 µM): 1.58; relative viability ([1]; first compound 0.03162 µM): 1.48; relative viability ([1]; first compound 0.3162 µM): 1.2; relative viability ([2]; first compound 0.03162 µM): 0.952; relative viability ([2]; first compound 0.3162 µM): 0.739; relative viability ([3]; first compound 0.01 µM): 0.37; relative viability ([3]; first compound 0.03162 µM): 0.451; relative viability ([3]; first compound 0.3162 µM): 0.371; relative viability ([4]; first compound 0.01 µM): 0.837; relative viability ([4]; first compound 0.03162 µM): 0.97; relative viability ([4]; first compound 0.3162 µM): 0.848; relative viability ([5]; first compound 0.01 µM): 1.08; relative viability ([5]; first compound 0.03162 µM): 1.04; relative viability ([5]; first compound 0.3162 µM): 1.08; relative viability ([6]; first compound 0.03162 µM): 1.13; relative viability ([6]; first compound 0.3162 µM): 1.08; relative viability ([7]; first compound 0.01 µM): 0.854; relative viability ([7]; first compound 0.03162 µM): 1.04; relative viability ([7]; first compound 0.3162 µM): 0.747
COc1cc(N2CCC(C(N)=O)CC2)ccc1Nc1nc(N)c(Cl)c(Nc2ccccc2S(=O)(=O)C(C)C)n1 [HG-5-88-01] + C[C@@H](Oc1cc(-c2cnn(C3CCNCC3)c2)cnc1N)c1c(Cl)ccc(F)c1Cl [Crizotinib] (partner 1 µM) | 0.735 | 0.763 | 0.699 | 0.0941 | 0.767 | 0.81 | 0.833 | 0.304 | 0.183 | 0.187 | 0.207 | 0.142 | 0.907 | 0.953 | 0.773 | 0.758 | 0.992 | 0.981 | 0.982 | 0.881 | relative viability ([1]; first compound 1.265 µM): 0.387; relative viability ([2]; first compound 1.265 µM): 0.616; relative viability ([3]; first compound 1.265 µM): 0.171; relative viability ([4]; first compound 1.265 µM): 0.632; relative viability ([5]; first compound 1.265 µM): 0.976; relative viability ([6]; first compound 0.04 µM): 0.581; relative viability ([6]; first compound 0.1265 µM): 0.523; relative viability ([6]; first compound 0.4 µM): 0.54; relative viability ([6]; first compound 1.265 µM): 0.327; relative viability ([6]; first compound 4 µM): 0.175; relative viability ([7]; first compound 0.04 µM): 0.949; relative viability ([7]; first compound 0.1265 µM): 1.04; relative viability ([7]; first compound 0.4 µM): 1.02; relative viability ([7]; first compound 1.265 µM): 0.936; relative viability ([7]; first compound 4 µM): 0.734
CC(C)Oc1cc(Nc2nc(N[C@@H](C)c3ccc(F)cn3)ncc2Cl)n[nH]1 [AZ23] + C[C@@H](Oc1cc(-c2cnn(C3CCNCC3)c2)cnc1N)c1c(Cl)ccc(F)c1Cl [Crizotinib] (partner 1 µM) | – | – | – | – | – | – | – | – | – | – | – | – | – | – | – | – | – | – | – | – | relative viability ([1]; first compound 0.01 µM): 1.08; relative viability ([1]; first compound 0.03162 µM): 1.03; relative viability ([1]; first compound 0.3162 µM): 0.943; relative viability ([2]; first compound 0.03162 µM): 0.987; relative viability ([2]; first compound 0.3162 µM): 0.974; relative viability ([3]; first compound 0.03162 µM): 0.196; relative viability ([3]; first compound 0.3162 µM): 0.185; relative viability ([4]; first compound 0.01 µM): 0.919; relative viability ([4]; first compound 0.03162 µM): 0.824; relative viability ([4]; first compound 0.3162 µM): 0.813; relative viability ([5]; first compound 0.01 µM): 1.06; relative viability ([5]; first compound 0.03162 µM): 1.01; relative viability ([5]; first compound 0.3162 µM): 1.08; relative viability ([6]; first compound 0.01 µM): 0.51; relative viability ([6]; first compound 0.03162 µM): 0.761; relative viability ([6]; first compound 0.3162 µM): 0.626; relative viability ([7]; first compound 0.01 µM): 0.97; relative viability ([7]; first compound 0.03162 µM): 1.05; relative viability ([7]; first compound 0.3162 µM): 0.896
C[C@@H]1CN(CC(=O)Nc2ccc3c(c2)Cc2cccc(-c4cc(=O)cc(N5CCOCC5)o4)c2S3)C[C@H](C)O1 + CC1(C)CCC(c2ccc(Cl)cc2)=C(CN2CCN(c3ccc(C(=O)NS(=O)(=O)c4ccc(N[C@H](CCN5CCOCC5)CSc5ccccc5)c(S(=O)(=O)C(F)(F)F)c4)cc3)CC2)C1 [Navitoclax] (partner 0.5 µM) | 1.3 | 1.2 | 1.23 | 0.912 | 0.871 | 0.831 | 0.889 | 0.54 | 0.405 | 0.432 | 0.287 | 0.216 | 0.759 | 0.787 | 0.669 | 0.317 | 1.03 | 1.04 | 1.01 | 0.941 | relative viability ([6]; first compound 0.04 µM): 1.42; relative viability ([6]; first compound 0.1265 µM): 1.45; relative viability ([6]; first compound 0.4 µM): 0.911; relative viability ([6]; first compound 4 µM): 0.808; relative viability ([7]; first compound 0.04 µM): 0.958; relative viability ([7]; first compound 0.1265 µM): 0.994; relative viability ([7]; first compound 0.4 µM): 0.934; relative viability ([7]; first compound 4 µM): 0.992
